Measured values taken from PMC13210772, “Dual FLT3/MAPK14 Proteolysis-Targeting Chimera (PROTAC) Induces Potent Acute Myeloid Leukemia Cell Death” (Pharmaceuticals, 2026).

Key:
Test in all cases: NanoBRET CELLinib128
Format in all cases: binding
[1] = target: T1, ERN1 (Homo sapiens, UniProt O75460); settings: 100% no effect, 0% complete tracer displacement, read-out: Tracer bound
T1 construct: Full-length kinase ORF (Promega, Madison, WI, USA) cloned in frame with a NanoLuc-vector was transfected into HEK293T cells; host or cells: HEK293T
Method: (§1) To get an impression about the binding strength of the PROTAC MA191 and the reference inhibitor MA68 to other kinases besides FLT3-ITD the binding on a kinase panel of further 128 representative protein kinases at 1 μM concentration was tested using the NanoBRET^TM cellular target engagement assay (CELLinib128 assay, CELLinib GmbH, Frankfurt, Germany). […] In none of the 128 kinases MA191 was able to displace the tracer (inhibitor) used by more than 50%, Table S1, Supplementary Information).
(§2) The CELLinib128 assay was performed by CELLinib GmbH, Frankfurt (Germany) as described previously. In brief: Full-length kinase ORF (Promega, Madison, WI, USA) cloned in frame with a NanoLuc-vector was transfected into HEK293T cells in Opti-MEM without phenol red (Life Technologies, Carlsbad, CA, USA) at a density of 2 × 10^5 cells/mL using FuGENE HD (Promega, E2312) and proteins were allowed to express for 20 h. For CDKs, where indicated below, an excess of an activator without an NLuc-fusion was cotransfected. […] The system was allowed to equilibrate at 37 °C for 2 h and 5% CO2 prior to BRET measurements. For PKCs, a chemical activator PMA was added in a final concentration of 1 µM was added together with test compounds and tracers (Promega, V1171). To measure BRET, NanoBRET^TM NanoGlo substrate + extracellular NanoLuc inhibitor (Promega, N2160) were added as per the manufacturer’s protocol, and filtered luminescence was measured (450 nm BP filter (donor) and 610 nm LP filter (acceptor)). For the 1-shot test compounds, data were normalized to the tracer control and the background control or control compound plateau and an average and SD were calculated. […] For the control compounds competitive displacement data were normalized to the tracer Ctrl and the background Ctrl and then plotted and fitted using GraphPad Prism 10 software using a normalized 3-parameter curve fit with the following equation: Y = 100/(1 + 10^X−LogIC50).

[2] = target: T2, MAPK9 (Homo sapiens, UniProt P45984); settings: 1 µM; 100% no effect, 0% complete tracer displacement
T2 construct: Full-length kinase ORF (Promega, Madison, WI, USA) cloned in frame with a NanoLuc-vector was transfected into HEK293T cells; host or cells: HEK293T
Method: as §1, §2

[3] = target: T3, ERN2 (Homo sapiens, UniProt Q76MJ5); settings: 100% no effect, 0% complete tracer displacement, read-out: Tracer bound
T3 construct: Full-length kinase ORF (Promega, Madison, WI, USA) cloned in frame with a NanoLuc-vector was transfected into HEK293T cells; host or cells: HEK293T
Method: as §1, §2

[4] = target: T4, MAP3K11 (Homo sapiens, UniProt Q16584); settings: 1 µM; 100% no effect, 0% complete tracer displacement
T4 construct: Full-length kinase ORF (Promega, Madison, WI, USA) cloned in frame with a NanoLuc-vector was transfected into HEK293T cells; host or cells: HEK293T
Method: as §1, §2

[5] = target: T5, RPS6KA1 (Homo sapiens, UniProt Q15418); settings: 100% no effect, 0% complete tracer displacement, read-out: Tracer bound
T5 construct: Full-length kinase ORF (Promega, Madison, WI, USA) cloned in frame with a NanoLuc-vector was transfected into HEK293T cells; host or cells: HEK293T
Method: as §1, §2

[6] = target: T6, MAP4K3 (Homo sapiens, UniProt Q8IVH8); settings: 1 µM; 100% no effect, 0% complete tracer displacement
T6 construct: Full-length kinase ORF (Promega, Madison, WI, USA) cloned in frame with a NanoLuc-vector was transfected into HEK293T cells; host or cells: HEK293T
Method: as §1, §2

[7] = target: T7, MAP4K2 (Homo sapiens, UniProt Q12851); settings: 100% no effect, 0% complete tracer displacement, read-out: Tracer bound
T7 construct: Full-length kinase ORF (Promega, Madison, WI, USA) cloned in frame with a NanoLuc-vector was transfected into HEK293T cells; host or cells: HEK293T
Method: as §1, §2

[8] = target: T8, ULK3v1 (Homo sapiens, UniProt Q6PHR2); settings: 1 µM; 100% no effect, 0% complete tracer displacement
T8 construct: Full-length kinase ORF (Promega, Madison, WI, USA) cloned in frame with a NanoLuc-vector; host or cells: HEK293T
Method: as §1, §2

[9] = target: T9, SIK1 (Homo sapiens, UniProt P57059); settings: 1 µM; 100% no effect, 0% complete tracer displacement
T9 construct: Full-length kinase ORF (Promega, Madison, WI, USA) cloned in frame with a NanoLuc-vector was transfected into HEK293T cells; host or cells: HEK293T
Method: as §1, §2

[10] = target: T10, MLTK (Homo sapiens, UniProt Q9NYL2); settings: 100% no effect, 0% complete tracer displacement, read-out: Tracer bound
T10 construct: Full-length kinase ORF (Promega, Madison, WI, USA) cloned in frame with a NanoLuc-vector was transfected into HEK293T cells; host or cells: HEK293T
Method: as §1, §2

[11] = target: T11, MYLK3 (Homo sapiens, UniProt Q32MK0); settings: 100% no effect, 0% complete tracer displacement, read-out: Tracer bound
T11 construct: Full-length kinase ORF (Promega, Madison, WI, USA) cloned in frame with a NanoLuc-vector was transfected into HEK293T cells; host or cells: HEK293T
Method: as §1, §2

[12] = target: T12, RPS6KA6 (Homo sapiens, UniProt Q9UK32); settings: 1 µM; 100% no effect, 0% complete tracer displacement
T12 construct: Full-length kinase ORF (Promega, Madison, WI, USA) cloned in frame with a NanoLuc-vector was transfected into HEK293T cells; host or cells: HEK293T
Method: as §1, §2

[13] = target: T13, CDK17-CCNY (Homo sapiens, UniProt Q00537); settings: 100% no effect, 0% complete tracer displacement, read-out: Tracer bound
T13 construct: Full-length kinase ORF (Promega, Madison, WI, USA) cloned in frame with a NanoLuc-vector was transfected into HEK293T cells; host or cells: HEK293T
Method: as §1, §2

[14] = target: T14, JAK3 (Homo sapiens, UniProt P52333); settings: 100% no effect, 0% complete tracer displacement, read-out: Tracer bound
T14 construct: Full-length kinase ORF (Promega, Madison, WI, USA) cloned in frame with a NanoLuc-vector was transfected into HEK293T cells; host or cells: HEK293T
Method: as §1, §2

[15] = target: T15, NEK9 (Homo sapiens, UniProt Q8TD19); settings: 100% no effect, 0% complete tracer displacement, read-out: Tracer bound
T15 construct: Full-length kinase ORF (Promega, Madison, WI, USA) cloned in frame with a NanoLuc-vector was transfected into HEK293T cells; host or cells: HEK293T
Method: as §1, §2

[16] = target: T16, NUAK1 (Homo sapiens, UniProt O60285); settings: 1 µM; 100% no effect, 0% complete tracer displacement
T16 construct: Full-length kinase ORF (Promega, Madison, WI, USA) cloned in frame with a NanoLuc-vector was transfected into HEK293T cells; host or cells: HEK293T
Method: as §1, §2

[17] = target: T17, FGFR4 (Homo sapiens, UniProt P22455); settings: 100% no effect, 0% complete tracer displacement, read-out: Tracer bound
T17 construct: Full-length kinase ORF (Promega, Madison, WI, USA) cloned in frame with a NanoLuc-vector was transfected into HEK293T cells; host or cells: HEK293T
Method: as §1, §2

[18] = target: T18, MUSK (Homo sapiens, UniProt O15146); settings: 100% no effect, 0% complete tracer displacement, read-out: Tracer bound
T18 construct: Full-length kinase ORF (Promega, Madison, WI, USA) cloned in frame with a NanoLuc-vector was transfected into HEK293T cells; host or cells: HEK293T
Method: as §1, §2

[19] = target: T19, BRSK1 (Homo sapiens, UniProt Q8TDC3); settings: 100% no effect, 0% complete tracer displacement, read-out: Tracer bound
T19 construct: Full-length kinase ORF (Promega, Madison, WI, USA) cloned in frame with a NanoLuc-vector was transfected into HEK293T cells; host or cells: HEK293T
Method: as §1, §2

[20] = target: T20, CDK3-CCNE1 (Homo sapiens, UniProt Q00526); settings: 1 µM; 100% no effect, 0% complete tracer displacement
T20 construct: Full-length kinase ORF (Promega, Madison, WI, USA) cloned in frame with a NanoLuc-vector was transfected into HEK293T cells; host or cells: HEK293T
Method: as §1, §2

[21] = target: T21, STK38L (Homo sapiens, UniProt Q9Y2H1); settings: 100% no effect, 0% complete tracer displacement, read-out: Tracer bound
T21 construct: Full-length kinase ORF (Promega, Madison, WI, USA) cloned in frame with a NanoLuc-vector was transfected into HEK293T cells; host or cells: HEK293T
Method: as §1, §2

[22] = target: T22, NEK1 (Homo sapiens, UniProt Q96PY6); settings: 100% no effect, 0% complete tracer displacement, read-out: Tracer bound
T22 construct: Full-length kinase ORF (Promega, Madison, WI, USA) cloned in frame with a NanoLuc-vector was transfected into HEK293T cells; host or cells: HEK293T
Method: as §1, §2

[23] = target: T23, CSNK2A2 (Homo sapiens, UniProt P19784); settings: 100% no effect, 0% complete tracer displacement, read-out: Tracer bound
T23 construct: Full-length kinase ORF (Promega, Madison, WI, USA) cloned in frame with a NanoLuc-vector was transfected into HEK293T cells; host or cells: HEK293T
Method: as §1, §2

[24] = target: T24, RPS6KA2 (Homo sapiens, UniProt Q15349); settings: 100% no effect, 0% complete tracer displacement, read-out: Tracer bound
T24 construct: Full-length kinase ORF (Promega, Madison, WI, USA) cloned in frame with a NanoLuc-vector was transfected into HEK293T cells; host or cells: HEK293T
Method: as §1, §2

[25] = target: T25, STK3 (Homo sapiens, UniProt Q13188); settings: 100% no effect, 0% complete tracer displacement, read-out: Tracer bound
T25 construct: Full-length kinase ORF (Promega, Madison, WI, USA) cloned in frame with a NanoLuc-vector was transfected into HEK293T cells; host or cells: HEK293T
Method: as §1, §2

[26] = target: T26, IRAK4 (Homo sapiens, UniProt Q9NWZ3); settings: 1 µM; 100% no effect, 0% complete tracer displacement
T26 construct: Full-length kinase ORF (Promega, Madison, WI, USA) cloned in frame with a NanoLuc-vector was transfected into HEK293T cells; host or cells: HEK293T
Method: as §1, §2

[27] = target: T27, TNK2 (Homo sapiens, UniProt Q07912); settings: 100% no effect, 0% complete tracer displacement, read-out: Tracer bound
T27 construct: Full-length kinase ORF (Promega, Madison, WI, USA) cloned in frame with a NanoLuc-vector; host or cells: HEK293T
Method: as §1, §2

[28] = target: T28, TEK (Homo sapiens, UniProt Q02763); settings: 100% no effect, 0% complete tracer displacement, read-out: Tracer bound
T28 construct: Full-length kinase ORF (Promega, Madison, WI, USA) cloned in frame with a NanoLuc-vector was transfected into HEK293T cells; host or cells: HEK293T
Method: as §1, §2

[29] = target: T29, SNRK (Homo sapiens, UniProt Q9NRH2); settings: 100% no effect, 0% complete tracer displacement, read-out: Tracer bound
T29 construct: Full-length kinase ORF (Promega, Madison, WI, USA) cloned in frame with a NanoLuc-vector was transfected into HEK293T cells; host or cells: HEK293T
Method: as §1, §2

[30] = target: T30, LATS1 (Homo sapiens, UniProt O95835); settings: 100% no effect, 0% complete tracer displacement, read-out: Tracer bound
T30 construct: Full-length kinase ORF (Promega, Madison, WI, USA) cloned in frame with a NanoLuc-vector was transfected into HEK293T cells; host or cells: HEK293T
Method: as §1, §2

T26 sequence (Q9NWZ3 whole entry): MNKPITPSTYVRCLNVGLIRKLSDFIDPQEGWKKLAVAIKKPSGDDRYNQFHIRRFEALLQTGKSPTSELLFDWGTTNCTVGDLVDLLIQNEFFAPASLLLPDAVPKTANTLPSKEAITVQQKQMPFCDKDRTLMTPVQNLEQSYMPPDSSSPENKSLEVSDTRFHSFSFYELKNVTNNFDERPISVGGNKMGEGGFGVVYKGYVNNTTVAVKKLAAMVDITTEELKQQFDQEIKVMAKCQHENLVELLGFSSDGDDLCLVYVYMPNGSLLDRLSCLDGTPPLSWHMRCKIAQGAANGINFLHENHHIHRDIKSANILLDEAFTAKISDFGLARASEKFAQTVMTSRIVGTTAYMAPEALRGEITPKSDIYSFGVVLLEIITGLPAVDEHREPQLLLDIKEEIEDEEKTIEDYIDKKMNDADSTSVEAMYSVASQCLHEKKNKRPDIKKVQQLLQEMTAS
T21 sequence (Q9Y2H1 whole entry): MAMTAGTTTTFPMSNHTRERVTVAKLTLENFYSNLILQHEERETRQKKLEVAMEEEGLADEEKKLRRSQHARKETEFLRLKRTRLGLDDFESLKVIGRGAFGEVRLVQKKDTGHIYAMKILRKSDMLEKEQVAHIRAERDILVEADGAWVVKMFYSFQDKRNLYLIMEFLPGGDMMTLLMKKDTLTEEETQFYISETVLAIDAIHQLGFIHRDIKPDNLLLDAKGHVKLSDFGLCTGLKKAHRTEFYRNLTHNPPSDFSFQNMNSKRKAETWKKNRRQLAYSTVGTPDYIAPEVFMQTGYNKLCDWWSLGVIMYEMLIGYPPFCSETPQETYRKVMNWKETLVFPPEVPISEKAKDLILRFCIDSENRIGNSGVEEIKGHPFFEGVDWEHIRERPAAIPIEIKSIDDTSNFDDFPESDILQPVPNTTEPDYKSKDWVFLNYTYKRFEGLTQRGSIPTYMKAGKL
T25 sequence (Q13188 whole entry): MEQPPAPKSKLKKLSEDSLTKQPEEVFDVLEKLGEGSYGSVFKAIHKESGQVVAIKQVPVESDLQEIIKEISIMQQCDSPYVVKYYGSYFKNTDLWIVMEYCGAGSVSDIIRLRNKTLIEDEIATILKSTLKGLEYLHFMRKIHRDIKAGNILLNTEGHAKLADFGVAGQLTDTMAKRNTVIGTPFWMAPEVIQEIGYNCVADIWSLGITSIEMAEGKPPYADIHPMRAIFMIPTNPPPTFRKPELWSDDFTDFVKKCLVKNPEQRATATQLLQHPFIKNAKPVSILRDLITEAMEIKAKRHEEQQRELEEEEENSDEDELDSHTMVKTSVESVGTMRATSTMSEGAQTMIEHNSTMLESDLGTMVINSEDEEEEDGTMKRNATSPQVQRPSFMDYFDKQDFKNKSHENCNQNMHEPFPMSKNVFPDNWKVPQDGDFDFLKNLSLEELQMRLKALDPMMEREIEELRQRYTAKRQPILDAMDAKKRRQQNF
T4 sequence (Q16584 whole entry): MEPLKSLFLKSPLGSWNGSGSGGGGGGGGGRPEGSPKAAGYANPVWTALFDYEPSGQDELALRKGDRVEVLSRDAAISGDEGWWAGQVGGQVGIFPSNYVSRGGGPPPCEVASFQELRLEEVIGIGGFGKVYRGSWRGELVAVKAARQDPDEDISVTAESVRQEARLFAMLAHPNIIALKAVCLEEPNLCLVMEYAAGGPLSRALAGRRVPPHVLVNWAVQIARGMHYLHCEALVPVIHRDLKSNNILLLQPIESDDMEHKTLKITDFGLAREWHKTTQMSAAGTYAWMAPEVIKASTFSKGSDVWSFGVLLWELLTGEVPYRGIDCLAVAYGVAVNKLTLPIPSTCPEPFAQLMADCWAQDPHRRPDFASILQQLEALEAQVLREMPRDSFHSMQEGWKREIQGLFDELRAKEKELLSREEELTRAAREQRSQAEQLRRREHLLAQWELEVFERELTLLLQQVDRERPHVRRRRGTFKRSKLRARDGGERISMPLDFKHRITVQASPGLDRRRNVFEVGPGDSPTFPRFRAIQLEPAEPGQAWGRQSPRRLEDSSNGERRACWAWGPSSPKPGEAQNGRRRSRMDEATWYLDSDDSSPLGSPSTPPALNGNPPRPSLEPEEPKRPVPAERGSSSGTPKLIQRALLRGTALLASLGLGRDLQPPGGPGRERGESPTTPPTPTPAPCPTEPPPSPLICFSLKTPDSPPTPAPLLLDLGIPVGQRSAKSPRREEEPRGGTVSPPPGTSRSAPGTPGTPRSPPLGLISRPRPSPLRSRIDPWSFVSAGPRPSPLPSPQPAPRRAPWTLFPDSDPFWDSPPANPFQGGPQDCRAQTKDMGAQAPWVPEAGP
T19 sequence (Q8TDC3 whole entry): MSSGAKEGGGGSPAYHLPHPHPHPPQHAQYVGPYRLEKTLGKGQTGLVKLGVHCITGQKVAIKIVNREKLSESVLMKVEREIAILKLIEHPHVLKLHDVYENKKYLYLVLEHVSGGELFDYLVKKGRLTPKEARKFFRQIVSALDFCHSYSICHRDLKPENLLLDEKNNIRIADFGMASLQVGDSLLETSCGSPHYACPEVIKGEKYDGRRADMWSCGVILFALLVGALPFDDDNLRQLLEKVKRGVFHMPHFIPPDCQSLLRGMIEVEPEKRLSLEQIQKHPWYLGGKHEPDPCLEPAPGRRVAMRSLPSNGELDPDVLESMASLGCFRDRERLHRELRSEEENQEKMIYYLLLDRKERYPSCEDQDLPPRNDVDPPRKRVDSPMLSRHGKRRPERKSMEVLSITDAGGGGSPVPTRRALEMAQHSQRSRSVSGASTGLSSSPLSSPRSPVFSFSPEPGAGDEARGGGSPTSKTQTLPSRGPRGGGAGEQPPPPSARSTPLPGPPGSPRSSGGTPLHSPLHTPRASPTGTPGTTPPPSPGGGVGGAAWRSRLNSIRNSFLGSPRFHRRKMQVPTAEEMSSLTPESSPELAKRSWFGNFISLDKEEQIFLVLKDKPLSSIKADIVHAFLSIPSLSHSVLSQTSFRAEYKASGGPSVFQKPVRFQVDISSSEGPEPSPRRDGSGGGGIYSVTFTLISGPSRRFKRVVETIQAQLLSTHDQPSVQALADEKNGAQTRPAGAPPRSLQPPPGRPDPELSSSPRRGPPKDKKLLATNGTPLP
T28 sequence (Q02763 23-1124): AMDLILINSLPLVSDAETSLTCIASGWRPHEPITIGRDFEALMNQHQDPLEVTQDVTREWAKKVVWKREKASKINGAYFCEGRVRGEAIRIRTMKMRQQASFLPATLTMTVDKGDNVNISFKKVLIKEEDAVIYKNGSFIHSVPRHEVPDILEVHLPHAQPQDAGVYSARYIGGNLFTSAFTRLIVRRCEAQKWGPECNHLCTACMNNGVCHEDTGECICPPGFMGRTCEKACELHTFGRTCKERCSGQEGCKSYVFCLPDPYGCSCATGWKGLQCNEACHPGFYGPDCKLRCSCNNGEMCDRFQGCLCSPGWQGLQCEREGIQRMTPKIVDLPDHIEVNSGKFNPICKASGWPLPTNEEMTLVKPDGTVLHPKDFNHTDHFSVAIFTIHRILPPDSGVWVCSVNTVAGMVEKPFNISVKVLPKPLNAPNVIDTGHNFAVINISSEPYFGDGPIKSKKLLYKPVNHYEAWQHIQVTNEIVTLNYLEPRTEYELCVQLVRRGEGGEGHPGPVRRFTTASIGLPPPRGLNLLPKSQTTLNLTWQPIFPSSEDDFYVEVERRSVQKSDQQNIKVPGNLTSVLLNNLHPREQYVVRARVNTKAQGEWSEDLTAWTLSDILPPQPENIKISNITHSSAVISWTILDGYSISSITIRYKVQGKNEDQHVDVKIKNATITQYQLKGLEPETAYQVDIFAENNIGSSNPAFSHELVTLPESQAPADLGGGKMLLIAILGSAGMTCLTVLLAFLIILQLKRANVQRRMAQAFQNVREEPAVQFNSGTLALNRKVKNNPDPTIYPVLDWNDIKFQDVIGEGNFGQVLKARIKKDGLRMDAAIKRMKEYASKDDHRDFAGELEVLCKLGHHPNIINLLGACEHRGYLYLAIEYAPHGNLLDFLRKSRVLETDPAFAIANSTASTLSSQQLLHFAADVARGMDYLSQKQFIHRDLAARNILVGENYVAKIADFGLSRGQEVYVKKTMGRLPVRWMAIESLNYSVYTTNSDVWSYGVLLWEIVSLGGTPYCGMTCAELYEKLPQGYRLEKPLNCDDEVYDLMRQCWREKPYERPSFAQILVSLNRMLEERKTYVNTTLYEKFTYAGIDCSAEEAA
T3 sequence (Q76MJ5 35-926): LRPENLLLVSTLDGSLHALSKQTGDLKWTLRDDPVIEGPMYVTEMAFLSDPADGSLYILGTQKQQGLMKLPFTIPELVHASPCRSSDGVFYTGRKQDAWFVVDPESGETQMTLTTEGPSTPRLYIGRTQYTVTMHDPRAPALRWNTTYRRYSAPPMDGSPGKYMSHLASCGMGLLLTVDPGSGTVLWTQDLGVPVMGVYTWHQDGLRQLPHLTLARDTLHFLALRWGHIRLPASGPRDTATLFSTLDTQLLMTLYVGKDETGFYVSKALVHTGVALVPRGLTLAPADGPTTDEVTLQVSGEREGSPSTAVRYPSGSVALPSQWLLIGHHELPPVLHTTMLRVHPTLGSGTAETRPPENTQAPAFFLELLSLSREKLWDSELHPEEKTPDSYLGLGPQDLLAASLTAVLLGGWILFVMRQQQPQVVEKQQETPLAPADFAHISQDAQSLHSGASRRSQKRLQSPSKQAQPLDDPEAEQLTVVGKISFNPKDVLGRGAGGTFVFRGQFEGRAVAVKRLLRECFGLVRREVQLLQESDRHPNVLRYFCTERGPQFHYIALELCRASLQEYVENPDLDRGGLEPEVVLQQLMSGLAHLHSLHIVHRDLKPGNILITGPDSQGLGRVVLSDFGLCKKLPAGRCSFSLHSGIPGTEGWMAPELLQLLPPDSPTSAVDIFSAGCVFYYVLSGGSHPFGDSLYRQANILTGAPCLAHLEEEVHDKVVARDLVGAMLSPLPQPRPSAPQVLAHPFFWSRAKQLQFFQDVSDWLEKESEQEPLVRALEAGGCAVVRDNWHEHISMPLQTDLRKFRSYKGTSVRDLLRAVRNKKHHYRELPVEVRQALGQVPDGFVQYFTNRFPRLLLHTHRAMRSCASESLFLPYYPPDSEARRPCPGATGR

CNC(=O)c1cc(Oc2ccc(NC(=O)Nc3cc(C(C)(C)C)on3)cc2)ccn1 [MA68, reference compound]
remaining activity at 1 µM [1]: 117%
Tracer bound [2]: 94.9%
remaining activity at 1 µM [3]: 120%
Tracer bound [4]: 109.2%
remaining activity at 1 µM [5]: 108%
Tracer bound [6]: 102.6%
remaining activity at 1 µM [7]: 107%
Tracer bound [8]: 96.1%
Tracer bound [9]: 110.5%
remaining activity at 1 µM [10]: 15.3%
remaining activity at 1 µM [11]: 119%
Tracer bound [12]: 113.5%
remaining activity at 1 µM [13]: 13.9%
remaining activity at 1 µM [14]: 111%
remaining activity at 1 µM [15]: 109%
Tracer bound [16]: 120.0%
remaining activity at 1 µM [17]: 86.5%
remaining activity at 1 µM [18]: 6%
remaining activity at 1 µM [19]: 106%
Tracer bound [20]: 81.0%
remaining activity at 1 µM [21]: 90%
remaining activity at 1 µM [22]: 110%
remaining activity at 1 µM [23]: 110%
remaining activity at 1 µM [24]: 116%
remaining activity at 1 µM [25]: 99.3%
Tracer bound [26]: 94.3%
remaining activity at 1 µM [27]: 116%
remaining activity at 1 µM [28]: 12.6%
remaining activity at 1 µM [29]: 99.2%
remaining activity at 1 µM [30]: 106%
